Earlier results as cited in patent US20120277156A1, “INHIBITION OF PATHOLOGICAL BONE FORMATION” (priority 2009, published 2012).

Test system: proprioception
Conditions: rat, in vivo

## CCN(CC)CC(=O)Nc1c(C)cccc1C [lidocaine]
  time by which function was fully recovered: ≤ 120 min
